Values after ≈ are worked out from the molar mass of the structure shown.
What was measured:
Enterobacter cloacae = test: Antibacterial activity against beta-lactamase producing Enterobacter cloacae 45301 after 18 hrs by agar dilution assay; assay type: functional; conditions: Enterobacter cloacae, 45301, 18 h
Citrobacter freundii = test: Antibacterial activity against beta-lactamase producing Citrobacter freundii 43864 after 18 hrs by agar dilution assay; assay type: functional; conditions: Citrobacter freundii, 43864, 18 h
Escherichia coli [1] = test: Antibacterial activity against ESBL negative Escherichia coli 1515 after 18 hrs by agar dilution assay; assay type: functional; conditions: Escherichia coli, 1515, 18 h
Morganella morganii = test: Antibacterial activity against beta-lactamase producing Morganella morganii 25830 after 18 hrs by agar dilution assay; assay type: functional; conditions: Morganella morganii, 25830, 18 h
Serratia marcescens = test: Antibacterial activity against beta-lactamase producing Serratia marcescens 41002 after 18 hrs by agar dilution assay; assay type: functional; conditions: Serratia marcescens, 41002, 18 h
Escherichia coli [2] = test: Antibacterial activity against ESBL negative Escherichia coli 25922 after 18 hrs by agar dilution assay; assay type: functional; conditions: Escherichia coli, 25922, 18 h
Klebsiella aerogenes = test: Antibacterial activity against beta-lactamase producing Enterobacter aerogenes 45102 after 18 hrs by agar dilution assay; assay type: functional; conditions: Klebsiella aerogenes, 45102, 18 h
Pseudomonas aeruginosa [3] = test: Antibacterial activity against BL positive Pseudomonas aeruginosa 27853 after 18 hrs by agar dilution assay; assay type: functional; conditions: Pseudomonas aeruginosa, 27853, 18 h
Salmonella typhi = test: Antibacterial activity against beta-lactamase producing Salmonella typhi H901 after 18 hrs by agar dilution assay; assay type: functional, Salmonella enterica subsp. enterica serovar Typhi; conditions: Salmonella enterica, H901, 18 h
Klebsiella pneumoniae [4] = test: Antibacterial activity against ESBL negative Klebsiella pneumoniae 09-8 after 18 hrs by agar dilution assay; assay type: functional; conditions: 09-8, 18 h
Klebsiella pneumoniae [5] = test: Antibacterial activity against ESBL positive Klebsiella pneumoniae 700603 after 18 hrs by agar dilution assay; assay type: functional; conditions: Klebsiella pneumoniae, 700603, 18 h
Pseudomonas aeruginosa [6] = test: Antibacterial activity against BL positive Pseudomonas aeruginosa 09-14 after 18 hrs by agar dilution assay; assay type: functional; conditions: 09-14, 18 h
Pseudomonas aeruginosa [7] = test: Antibacterial activity against BL positive Pseudomonas aeruginosa PAO1 after 18 hrs by agar dilution assay; assay type: functional; conditions: PAO1, 18 h
Escherichia coli [8] = test: Antibacterial activity against ESBL negative Escherichia coli 09-20 after 18 hrs by agar dilution assay; assay type: functional; conditions: 09-20, 18 h
Providencia rettgeri = test: Antibacterial activity against Providencia rettgeri 31052 after 18 hrs by agar dilution assay; assay type: functional; conditions: Providencia rettgeri, 31052, 18 h
Klebsiella pneumoniae [9] = test: Antibacterial activity against ESBL negative Klebsiella pneumoniae 7 after 18 hrs by agar dilution assay; assay type: functional; conditions: Klebsiella pneumoniae, 7, 18 h
Escherichia coli [10] = test: Antibacterial activity against ESBL positive Escherichia coli 09-1 after 18 hrs by agar dilution assay; assay type: functional; conditions: 09-1, 18 h
Proteus mirabilis = test: Antibacterial activity against beta-lactamase producing Proteus mirabilis 09-1 after 18 hrs by agar dilution assay; assay type: functional; conditions: 09-1, 18 h
Klebsiella pneumoniae [11] = test: Antibacterial activity against ESBL positive Klebsiella pneumoniae 09-25 after 18 hrs by agar dilution assay; assay type: functional; conditions: 09-25, 18 h
Proteus vulgaris = test: Antibacterial activity against beta-lactamase producing Proteus vulgaris 29905 after 18 hrs by agar dilution assay; assay type: functional; conditions: Proteus vulgaris, 29905, 18 h
Klebsiella pneumoniae [12] = test: Antibacterial activity against NDM-1 positive Klebsiella pneumoniae BAA-2146 after 18 hrs by agar dilution assay; assay type: functional; conditions: BAA-2146, 18 h
Escherichia coli [13] = test: Selectivity ratio of MIC for Escherichia coli BL21 to MIC for acrAB and acrEF knock-out Escherichia coli BL21; assay type: functional

Row | Structure (SMILES) | MIC (Enterobacter cloacae) | MIC (Citrobacter freundii) | MIC (Escherichia coli [1]) | MIC (Morganella morganii) | MIC (Serratia marcescens) | MIC (Escherichia coli [2]) | MIC (Klebsiella aerogenes) | MIC (Pseudomonas aeruginosa [3]) | MIC (Salmonella typhi) | MIC (Klebsiella pneumoniae [4]) | MIC (Klebsiella pneumoniae [5]) | MIC (Pseudomonas aeruginosa [6]) | MIC (Pseudomonas aeruginosa [7]) | MIC (Escherichia coli [8]) | MIC (Providencia rettgeri) | MIC (Klebsiella pneumoniae [9]) | MIC (Escherichia coli [10]) | MIC (Proteus mirabilis) | MIC (Klebsiella pneumoniae [11]) | MIC (Proteus vulgaris) | other results
1 | CCN(CC)CC.Cc1ccc(O)c(/C=N/NC(=O)c2ccc(CO/N=C(\C(=O)N[C@@H]3C(=O)N(S(=O)(=O)O)[C@H]3C)c3csc(N)n3)cc2)c1 (relative stereo) | 4 µg/mL | 8 µg/mL | 0.25 µg/mL | 0.12 µg/mL | 8 µg/mL | 8 µg/mL | 8 µg/mL | 32 µg/mL | 8 µg/mL | 32 µg/mL | 64 µg/mL | 32 µg/mL | 32 µg/mL | 64 µg/mL | 0.06 µg/mL | 2 µg/mL | 64 µg/mL | 2 µg/mL | > 64 µg/mL | 1 µg/mL | MIC (Klebsiella pneumoniae [12]): > 64 µg/mL
2 | Cn1cc(CO/N=C(\C(=O)N[C@@H]2C(=O)N(S(=O)(=O)O)C2(C)C)c2csc(N)n2)nn1 | 2 µg/mL (≈ 4.36 µM) | 4 µg/mL (≈ 8.72 µM) | 4 µg/mL (≈ 8.72 µM) | 0.125 µg/mL (≈ 0.273 µM) | 8 µg/mL (≈ 17.4 µM) | 4 µg/mL (≈ 8.72 µM) | 8 µg/mL (≈ 17.4 µM) | > 64 µg/mL | > 64 µg/mL | 8 µg/mL (≈ 17.4 µM) | > 64 µg/mL | > 64 µg/mL | > 64 µg/mL | 8 µg/mL (≈ 17.4 µM) | 0.06 µg/mL (≈ 0.131 µM) | 2 µg/mL (≈ 4.36 µM) | 2 µg/mL (≈ 4.36 µM) | 2 µg/mL (≈ 4.36 µM) | 8 µg/mL (≈ 17.4 µM) | 0.125 µg/mL (≈ 0.273 µM) | MIC (Klebsiella pneumoniae [12]): 64 µg/mL (≈ 140 µM)
3 | C[C@H]1[C@H](NC(=O)/C(=N\OCc2cn(C)nn2)c2csc(N)n2)C(=O)N1S(=O)(=O)O (relative stereo) | 1 µg/mL (≈ 2.25 µM) | 4 µg/mL (≈ 9 µM) | 4 µg/mL (≈ 9 µM) | 0.5 µg/mL (≈ 1.12 µM) | 2 µg/mL (≈ 4.5 µM) | 4 µg/mL (≈ 9 µM) | 2 µg/mL (≈ 4.5 µM) | > 128 µg/mL | > 128 µg/mL | > 128 µg/mL | > 128 µg/mL | > 128 µg/mL | > 128 µg/mL | > 128 µg/mL | 0.125 µg/mL (≈ 0.281 µM) | 1 µg/mL (≈ 2.25 µM) | 4 µg/mL (≈ 9 µM) | 1 µg/mL (≈ 2.25 µM) | > 128 µg/mL | 0.5 µg/mL (≈ 1.12 µM) | MIC (Klebsiella pneumoniae [12]): > 128 µg/mL
4 | CC1(C)[C@H](NC(=O)/C(=N\OCc2cn(CC(=O)O)nn2)c2csc(N)n2)C(=O)N1S(=O)(=O)O | 1 µg/mL (≈ 1.99 µM) | 2 µg/mL (≈ 3.98 µM) | 32 µg/mL (≈ 63.7 µM) | > 64 µg/mL | 2 µg/mL (≈ 3.98 µM) | 2 µg/mL (≈ 3.98 µM) | 4 µg/mL (≈ 7.96 µM) | > 64 µg/mL | > 64 µg/mL | 1 µg/mL (≈ 1.99 µM) | > 64 µg/mL | > 64 µg/mL | > 64 µg/mL | 8 µg/mL (≈ 15.9 µM) | ≤ 0.03 µg/mL | 1 µg/mL (≈ 1.99 µM) | 2 µg/mL (≈ 3.98 µM) | 2 µg/mL (≈ 3.98 µM) | 32 µg/mL (≈ 63.7 µM) | 0.125 µg/mL (≈ 0.249 µM) | MIC (Klebsiella pneumoniae [12]): > 64 µg/mL
5 | CCN(CC)CC.C[C@H]1[C@H](NC(=O)/C(=N\OCc2ccc(C(=O)N/N=C/c3ccc4ccccc4c3O)cc2)c2csc(N)n2)C(=O)N1S(=O)(=O)O | 4 µg/mL | 8 µg/mL | 0.25 µg/mL | 0.06 µg/mL | 8 µg/mL | 4 µg/mL | 8 µg/mL | 16 µg/mL | 8 µg/mL | 32 µg/mL | > 64 µg/mL | 16 µg/mL | 16 µg/mL | 64 µg/mL | ≤ 0.03 µg/mL | 2 µg/mL | 64 µg/mL | 1 µg/mL | > 64 µg/mL | 1 µg/mL | MIC (Klebsiella pneumoniae [12]): > 64 µg/mL
6 | CCN(CC)CC.C[C@H]1[C@H](NC(=O)/C(=N\OCc2ccc(C(=O)N/N=C/c3ccc(O)cc3O)cc2)c2csc(N)n2)C(=O)N1S(=O)(=O)O (relative stereo) | 4 µg/mL | 8 µg/mL | 0.25 µg/mL | 0.12 µg/mL | 4 µg/mL | 8 µg/mL | 4 µg/mL | 16 µg/mL | 8 µg/mL | 32 µg/mL | 64 µg/mL | 16 µg/mL | 16 µg/mL | 64 µg/mL | ≤ 0.03 µg/mL | 2 µg/mL | 64 µg/mL | 1 µg/mL | > 64 µg/mL | 0.5 µg/mL | Selectivity ratio (Escherichia coli [13]): >16; MIC (Klebsiella pneumoniae [12]): > 64 µg/mL
